Results published in US6552006B2, “Immunomodulatory polynucleotides in treatment of an infection by an intracellular pathogen” (The Regents of the University of California, priority 2000, dated 2003).

Legend:
[1] = test system: M. avium; test: Intracellular growth of M. avium in human monocyte-derived macrophages (hMDM) in vitro, CFU assay; format: cell-based, Mycobacterium avium; details: for enhancement of the anti-mycobacterial effect of clarithromycin: compared to antibiotic alone
Protocol: A previously studied M. avium strain 13 (Hayashi, et al. (1999) Infect. Immun. 67:3558-3565; Meylan, et al. (1990) Infect. Immun. 58:2564-2568), isolated from an AIDS patient at UCSD, San Diego, Calif., was used in all experiments. The organism was cultured on Middlebrook 7H11 agar (Difco Laboratories, Detroit, Mich.) with OADC enrichment at 37° C. in the presence of 5% CO2 for two weeks. Transparent colonies were selectively picked and further cultured on Middlebrook 7H11 plates for two more weeks. The resulting colonies, which were predominantly transparent (>90%), were then collected and washed two times with phosphate-buffered saline (PBS). The bacteria were finally resuspended in Middlebrook 7H9 broth (Difco Laboratories) and the OD600 of the suspension was adjusted to 0.15-0.2. The suspension was aliquoted and stored at −70° C. until use. The number of organisms/ml of this suspension was determined by the colony forming unit (CFU) assay.
The number of CFU in a given sample was determined by colony counting as described previously (Ogata, et al. (1992) Infect. Immun. 60:4720-4725). Serial 10-fold dilutions of total cell lysates or tissue homogenates were performed in PBS. 10 μl of each dilution were plated on Middlebrook 7H11 plates supplemented with OADC enrichment. The plates were incubated up to 14 days at 37° C. The number of colonies was counted every alternate day from day 10 onwards until no new colonies appeared. This yielded the number of CFU/10 μl. The number of CFU in each well was then calculated.
Monocytes were isolated from normal human buffy coats obtained from the San Diego Blood Bank by Ficoll-Hypaque and Percoll gradient centrifugation (Hayashi, et al. (1997) Infect. Immun. 65:5262-5271). Purity of the monocytes by this method was greater than 70%. The monocytes thus isolated were cultured for five to seven days in Iscove's Modified Dulbecco's Medium (BioWhittaker, Walkersville, Md.) supplemented with 10% normal human serum (Irvine Scientific, Santa Ana, Calif.), 2 mM L-glutamine and 50 units/ml penicillin-streptomycin in Teflon beakers to yield human monocyte-derived macrophages (hMDM). These hMDM were further enriched by adherence to the wells of tissue culture plates before use in experiments. Purity of hMDM after the second adherence assessed by esterase staining was >95%. Viability determined by trypan blue exclusion was >97%.
hMDM (6×10^4) were, adhered to the wells of 96-well tissue culture plates for two hours and non-adherent cells were removed by washing with warm RPMI-1640. Adherent cells were treated with ISS at 3, 10, or 30 μg/ml for 72 h before infection with M. avium. Cells treated with M-ODN at 10 μg/ml or with media alone served as controls. After 72 h, the cells were washed two times and infected with M. avium in RPMI-1640 supplemented with 5% heat-inactivated fetal bovine serum (FBS, Irvine Scientific) at a cell:bacteria ratio of 1:5-1:10. On days 1, 3 and 7 after infection, the total number of colony forming units (CFU) in each well was determined. The supernatant was collected and set aside and the adherent cells were lysed. To account for all the mycobacteria in each well, corresponding lysates and supernatants were combined and used to determine the number of CFU. Experiments were done in triplicate and results were expressed as mean±SD of CFU per well.
Alternatively, 5×10^4 mBMDM or hMDM was treated with ISS for 3 days before infection. Macrophages treated with M-ODN or with media alone served as controls. After 3 days, the cells were infected for 2 hrs with M. avium at a macrophage:bacteria ratio of 2:1 for mBMDM or of 1:10 for hMDM, and subsequently cultured in fresh media without antibiotics. To examine attachment and/or invasion of M. avium, the macrophages were lysed immediately after washing, and the number of bacteria were enumerated by the CFU assay. Intracellular growth of M. avium was determined on days 1, 3, and 7 after infection. […]

[2] = test system: indoleamine 2,3-dioxygenase (IDO); test: IDO gene transcription in mBMDM in vitro, semi-quantitative RT-PCR; format: cell-based, mouse; details: mBMDM treated 3 days prior to M. avium infection; 4, 8, 24 hrs after infection
Protocol: 1-4×10^6 mBMDM were treated with ISS or M-ODN. After 3 days, the cells were infected with M. avium for 2 hrs. At 2, 24, and 48 hrs after infection, the M. avium-infected macrophages were lysed and total RNA was isolated using the Trizol Reagent (Gibco BRL). The induction of IDO gene transcription was measured by semi-quantitative […]. First-strand cDNA preparation and PCR amplification was carried out using the SuperScript Pre-amplification System (Gibco BRL) and AdvanTaq Plus DNA polymerase (Clontech, San Francisco, Calif.), respectively. PCR products were visualized by electrophoresis on 2% agarose gels. The primer sequences used were as follows:
For in vitro studies mBMDM were treated with ISS for 3 days prior to M. avium infection. Then, cells were lysed at 4, 8, and 24 hrs after infection, total RNA was extracted, and semi-quantitative RT-PCR was performed.

[3] = test system: M. avium; test: Attachment and/or invasion of M. avium into mBMDM, CFU immediately after infection; format: cell-based, Mycobacterium avium; details: vs cells treated with M-ODN or medium alone
Protocol: Alternatively, 5×10^4 mBMDM or hMDM was treated with ISS for 3 days before infection. Macrophages treated with M-ODN or with media alone served as controls. After 3 days, the cells were infected for 2 hrs with M. avium at a macrophage:bacteria ratio of 2:1 for mBMDM or of 1:10 for hMDM, and subsequently cultured in fresh media without antibiotics. To examine attachment and/or invasion of M. avium, the macrophages were lysed immediately after washing, and the number of bacteria were enumerated by the CFU assay. Intracellular growth of M. avium was determined on days 1, 3, and 7 after infection. To account for all the mycobacteria in each group, corresponding lysates were combined and then the number of CFU was determined. To examine the efficacy of anti-mycobacterial treatments, CFU recovered from cells treated with medium alone were considered as 100% growth.
ISS activate macrophages and induce the expression of surface adhesion molecules such as ICAM-1 (Martin-Orozco, et al. (1999) Int. Immun. 11:1111-1118). These molecules may affect the attachment of M. avium or its invasion into mouse bone marrow-derived macrophages (mBMDM). […]

Substance: 5′-TGACTGTGAACGTTCGAGATGA-3′ (SEQ ID NO:1) [ISS]
- decrease of intracellular growth of M. avium ([1]; established infection, infected hMDM treated with ISS 10 μg/ml for 7 days): 53%
- inhibition of intracellular growth of M. avium ([1]; hMDM (5×10^4/well) treated 3 days before infection, 7 days post-infection (FIG. 4A)): 91%
- inhibition of intracellular growth of M. avium ([1]; hMDM pretreated 72 h with 3 μg/ml ISS before infection, day 7, vs medium alone or M-ODN): 91.3±1.7%
- growth inhibition at the higher concentrations of ISS tested ([1]; hMDM pretreated with 10 or 30 μg/ml vs 3 μg/ml ISS): no further increase in growth inhibition
- inhibition of growth of M. avium ([1]; hMDM, ISS (10 µg/mL) immediately after infection (0 day), CFU at day 7, vs medium alone): 53±18%
- inhibition of growth of M. avium ([1]; hMDM, ISS (10 µg/mL) one day after infection (+1 day), CFU at day 7, vs medium alone): 36±16%
- inhibition of intracellular growth of M. avium ([1]; hMDM, ISS (10 µg/mL) pretreatment three days before infection (−3 days), CFU at day 7, vs medium alone): 51±4%
- inhibition of intracellular growth of M. avium ([1]; infected hMDM, ISS 10 μg/ml alone, day 7): 38±7%
- enhancement of the anti-mycobacterial effect of clarithromycin ([1]; infected hMDM, ISS 10 μg/ml with 1 μg/ml clarithromycin, day 7): 89±5%
- enhancement of the anti-mycobacterial effect of clarithromycin ([1]; infected hMDM, ISS 10 μg/ml with 4 μg/ml clarithromycin, day 7): 63±12%
- optimal induction of IDO gene transcription [2]: require both treatment with ISS and M. avium infection
- CFU recovered immediately from cells treated before infection (attachment/invasion) [3]: not significantly different
